Source: PMC3664642, “A Peptide against Soluble Guanylyl Cyclase α1: A New Approach to Treating Prostate Cancer” (PLoS ONE, 2013)
“Also recorded” adds a separate entry of the source. Where no end group is shown, it is not given here.

Legend:
LNCaP cells = assay: Proliferation/cytotoxicity, LNCaP cells (MTT); format: cell-based; conditions: different concentrations, averages of three independent experiments
Procedure: LNCaP, C81, PC-3 and Cos cells were grown as previously described. CWR-22Rv1 cells were cultured in RMPI-1640 medium with 10% FBS and 50 µg/ml Gentamicin (Gibco). Control siRNA, sGCα1 siRNA and AKT siRNA (Dharmacon) at 50 nM final concentration was transfected into cells using Lipofectamine siMAX (Invitrogen).
(§1) For proliferation, cells were grown in medium containing 2% FBS extracted with dextran-coated charcoal (DCC). 48 hours later, ethanol or 1 nM R1881 was added to the cells followed by peptide treatment. The MTT assay (Sigma) was used as before to determine cell number. For apoptosis, 5000 cells were seeded in 96-well plates and treated with Vehicle (DMSO), Peptide A-8R (25 µM), Etoposide (50 µM) (Sigma) at different time points. The Caspase (3/7) activity was measured using Apo-ONE Homogeneous Caspase-3/7 assay kit (Promega). PARP cleavage was also used to measure apoptosis, and is described below.
(A) Four peptides were designed targeting sGCα1, with each peptide containing eight arginines at the C-terminus for membrane translocation. (B) LNCaP cells were grown in 10% serum under different concentrations of the four peptides, as shown. Cell number was measured after 0–4 days of incubation. Data points represent averages of three independent experiments plus standard deviations. Asterisks indicate statistical significance (P<0.0002) of Peptide A activity, relative to Vehicle.
Figure 2 Peptide A-8R interacts with sGCα1 in prostate cancer cells. (A) LNCaP cells were treated with 25 µM Biotin-labeled Peptide A-8R for 2 hrs and subjected to immunocytochemistry using anti-sGCα1 or anti-Biotin antibody to measure subcellular co-localization of endogenous sGCα1 and Peptide A-8R. DAPI was used to stain nuclei. (B) LNCaP cytosolic extracts were incubated with Peptide A-8R-Biotin and subjected to purification using streptavidin-agarose. This pull-down experiment was repeated with competing excess amount of unlabeled Peptide C-8R or Peptide A-8R. […] Co-purified Peptide A-8R-FITC was quantified by measuring fluorescence signal emission. […] Cell number was measured after 0–48 hrs of incubation. […]

[1] = system: Caspase 3/7 activity in PC-3 cells; assay: Caspase 3/7 assay, PC-3 cells; format: cell-based; conditions: 10 µM; 0–24 hrs; Fig. 5B
Procedure: as §1
Figure 5 Peptide A-8R induces apoptosis of prostate cancer cells. (A) LNCaP, (B) PC-3, or (C) Cos cells were treated with Vehicle, Peptide A-8R (10 µM), or Etoposide (20 µM) for 0–24 hrs and subjected to a Caspase assay to measure apoptosis. Bar graphs represent averages of three independent experiments plus standard deviations. All activities are relative to the first condition, and this activity was set to 1. Asterisks indicate statistical significance (P<0.005). (D) LNCaP cells were treated with Vehicle, Peptide C-8R, Peptide A-8R, or Etoposide (each drug at 50 µM) for 8 hrs and monitored for apoptosis by measuring PARP cleavage using Western blotting. Note that β-actin was used to control for protein loading.

[2] = system: PARP cleavage in LNCaP cells; assay: PARP cleavage by Western blot, LNCaP cells; format: cell-based; conditions: 50 µM each drug, 8 hrs, Fig. 5D
Procedure: as §1
(§2) Western blotting was performed as described using primary antibodies against sGCα1 (Cayman Chemical), pan-Akt (Cell Signaling Technology), phospho-AKT (S473, T308) (Cell Signaling Technology), phospho-PDK1 (Cell Signaling Technology), phospho-GSK-3β (Cell Signaling Technology), PARP (Cell Signaling Technology), and β-Actin (Abcam).
Figure 5 Peptide A-8R induces apoptosis of prostate cancer cells. (A) LNCaP, (B) PC-3, or (C) Cos cells were treated with Vehicle, Peptide A-8R (10 µM), or Etoposide (20 µM) for 0–24 hrs and subjected to a Caspase assay to measure apoptosis. […] (D) LNCaP cells were treated with Vehicle, Peptide C-8R, Peptide A-8R, or Etoposide (each drug at 50 µM) for 8 hrs and monitored for apoptosis by measuring PARP cleavage using Western blotting. […]

p15, p21, CDK6 = assay: Expression of cell-cycle regulatory proteins (Western blot), C81 cells; format: cell-based; conditions: 25 µM, Fig. S7
Procedure: as §2
Supplementary file pone.0064189.s007.tif: Figure S7 Peptide A-8R induces expression of p15 and p21 in prostate cancer cells. C81 cells treated with 25 µM Peptide A-8R or Peptide C-8R for different times, as shown, monitored for expression of p15, p21, and CDK6 by Western blotting (antibodies from Cell Signaling Technology). Note that β-actin was used to control for protein loading. (TIF) Click here for additional data file.

C81 xenograft tumors = assay: C81 mouse xenograft tumor study; format: in vivo
Procedure: 2×10^6 C81 cells in 50 µL of growth medium was mixed with 50 µL Matrigel (BD Biosciences) and injected into both flanks of 4–6-week old SCID male mice. When tumor sizes reached 200 mm^3, 50 µL of Peptide A-8R (40 mg Peptide A-8R/Kg of animal) or Vehicle (DMSO) was directly injected into the tumors every other day. Injections were stopped after 5 times and tumors were measured every 3 days. Mice were euthanized after 3 weeks and tumors were excised. All procedures were approved by the University of Toledo Division of Lab Animal Recourses (DLAR). Protein extracts were prepared by boiling the tumor tissue in 3× SDS buffer, and evaluated by SDS-PAGE gel.
This study was carried out in strict accordance with the recommendations in the Guide for the Care and Use of Laboratory Animals of the National Institutes of Health. The protocol was approved by the Institutional Animal Care and Use Committee of the University of Toledo (Protocol Number: 106418). During the experiments all animals were monitored daily for morbidity and all efforts were made to minimize suffering. At the end of the study all animals were euthanized using inhalation of carbon dioxide, after which surgery was performed to excise tumors from all animals.
(A) Mouse xenograft tumors derived from C81 cells were treated with Vehicle or Peptide A-8R, after which they were allowed to grow for an additional three weeks without treatment. Data points represent average tumor size of three animals for each treatment plus standard deviations. Note that there is a statistical difference (P<0.00004) in average tumor size for each day of tumor measurement. Arrow represents day of last injection of Vehicle or Peptide A-8R. […] Bar graphs represent averages of each set of three tumors plus standard deviations. Asterisks indicate statistical significance (P<0.02). (C) Two tumors, one on each flank of the same animal, were treated with either Vehicle or Peptide A-8R.

p53 = p53 activity and dependence; format: cell-based; conditions: prostate cancer cells; data not shown

**Q.** How did the “cytotoxic activity / cell number, LNCaP” value (LNCaP cells; 10% serum, 0–4 days, Fig. 1B, P<0.0002 Peptide A vs Vehicle) turn out when Ac-TFCKAFPFHIIRRRRRRRR [Peptide A-8R] was run?
**A.** Its value is “strong, dose-dependent, cytotoxic activity, killing nearly all cells by day 4; also recorded: strongly cytotoxic to prostate cancer cells”.

**Q.** What about the “cytotoxic effect with or without 8-arginine sequence” value (LNCaP cells; LNCaP, MTT, Fig. S2, P<0.005) of the same substance?
**A.** Its value is “strong cytotoxic effect”.

**Q.** And the “induction of apoptosis, PC-3” value [1]?
**A.** The value was “failed to induce apoptosis”.

**Q.** And the “induction of PARP cleavage” value [2]?
**A.** The value was “to the same extent as by Etoposide”.

**Q.** And the “expression of CDK6” value (p15, p21, CDK6)?
**A.** Its value is “unchanged”.

**Q.** And the “expression of p15 and p21” value (p15, p21, CDK6)?
**A.** Its value is “expression increased”.

**Q.** And the “tumor growth during five injections, C81 xenograft” value (C81 xenograft tumors; 40 mg/Kg intratumoral, every other day, 5 times, Fig. 6A, 6B, three animals per treatment, P<0.00004)?
**A.** Its value is “stopped tumor growth and actually caused some tumor regression during the five injections of peptide”.

**Q.** And the “anti-tumor activity, C81 xenograft (summary)” value (C81 xenograft tumors; intra-tumoral injection)?
**A.** The value was “able to stop tumor growth; also recorded: blocks the growth of castration-resistant prostate tumors; also recorded: strong anti-cancer activity”.

**Q.** And the “tumor growth three weeks after treatment stopped, C81 xenograft” value (C81 xenograft tumors; three weeks after last injection, Vehicle tumors grew more than three-fold, Fig. 6A)?
**A.** Its value is “did not grow at all three weeks after Peptide treatment was stopped”.

**Q.** And the “tumor size in same animal, Peptide- vs Vehicle-treated flank” value (C81 xenograft tumors; two tumors, one per flank of same mouse, Fig. 6C)?
**A.** The value was “markedly smaller than the Vehicle-treated tumor”.

**Q.** And the “effect on p53 activity and p53 dependence of apoptosis” value (p53)?
**A.** The value was “does not disrupt p53 activity nor depend on endogenous p53 for inducing apoptosis”.
